Measured values reported in PubChem BioAssay (NCI).
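Abbreviation: GI50, concentration required for 50% inhibition of growth. TGI denotes the concentration required for complete inhibition of growth.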

Tests used:
Assay in all cases: inhibition of tumour cell growth, NCI panel, 384-well format
COLO 205 colon = system: COLO 205 colon
IGROV1 ovarian = system: IGROV1 ovarian
SF-295 CNS = system: SF-295 CNS
MOLT-4 leukemia = system: MOLT-4 leukemia
MCF7 breast = system: MCF7 breast
MALME-3M melanoma = system: MALME-3M melanoma
SR leukemia = system: SR leukemia
SN12C renal = system: SN12C renal
PC-3 prostate = system: PC-3 prostate
SNB-75 CNS = system: SNB-75 CNS
HCT-15 colon = system: HCT-15 colon
U251 glioblastoma = system: U251 glioblastoma
SK-MEL-28 melanoma = system: SK-MEL-28 melanoma
CAKI-1 renal = system: CAKI-1 renal
LOX IMVI melanoma = system: LOX IMVI melanoma
OVCAR-8 ovarian = system: OVCAR-8 ovarian
NCI-H460 NSCLC = system: NCI-H460 NSCLC
NCI-H226 lung = system: NCI-H226 lung
TK-10 renal = system: TK-10 renal
HCC-2998 colon = system: HCC-2998 colon
786-0 renal = system: 786-0 renal
SF-268 CNS = system: SF-268 CNS
SF-539 CNS = system: SF-539 CNS
A498 renal = system: A498 renal
SK-MEL-5 melanoma = system: SK-MEL-5 melanoma
HS 578T breast = system: HS 578T breast
NCI-H522 lung = system: NCI-H522 lung
OVCAR-5 ovarian = system: OVCAR-5 ovarian
UACC-257 melanoma = system: UACC-257 melanoma
HL-60(TB) leukemia = system: HL-60(TB) leukemia
HCT-116 colon = system: HCT-116 colon
BT-549 breast = system: BT-549 breast
HOP-62 NSCLC = system: HOP-62 NSCLC
OVCAR-3 ovarian = system: OVCAR-3 ovarian
SNB-19 CNS = system: SNB-19 CNS
RXF 393 renal = system: RXF 393 renal
UO-31 renal = system: UO-31 renal
DU-145 prostate = system: DU-145 prostate
HOP-92 NSCLC = system: HOP-92 NSCLC
NCI-H23 lung = system: NCI-H23 lung
NCI-H322M lung = system: NCI-H322M lung
KM12 colon = system: KM12 colon
MDA-MB-468 breast = system: MDA-MB-468 breast
SK-OV-3 ovarian = system: SK-OV-3 ovarian
HT29 colon = system: HT29 colon
A549 NSCLC = system: A549 NSCLC
SW-620 colon = system: SW-620 colon
K-562 leukemia = system: K-562 leukemia
NCI/ADR-RES ovarian = system: NCI/ADR-RES ovarian
MDA-MB-435 melanoma = system: MDA-MB-435 melanoma
CCRF-CEM leukemia = system: CCRF-CEM leukemia
OVCAR-4 ovarian = system: OVCAR-4 ovarian
ACHN renal = system: ACHN renal
EKVX NSCLC = system: EKVX NSCLC
RPMI-8226 leukemia = system: RPMI-8226 leukemia
MDA-MB-231 breast = system: MDA-MB-231 breast
M14 melanoma = system: M14 melanoma
T-47D breast = system: T-47D breast
UACC-62 melanoma = system: UACC-62 melanoma
SK-MEL-2 melanoma = system: SK-MEL-2 melanoma

Question: What does the source list for `Cc1ccccc1N=Nc1ccc(NC(=O)c2ccnn2C)c(C)c1`?
Answer: GI50 (COLO 205 colon): > 100 µM; TGI (COLO 205 colon): > 100 µM; GI50 (IGROV1 ovarian): > 100 µM; TGI (IGROV1 ovarian): > 100 µM; GI50 (SF-295 CNS): 27.1 µM; TGI (SF-295 CNS): > 100 µM; GI50 (MOLT-4 leukemia): 30.4 µM; TGI (MOLT-4 leukemia): > 100 µM; GI50 (MCF7 breast): 36.8 µM; TGI (MCF7 breast): > 100000 nM; GI50 (MALME-3M melanoma): > 100 µM; TGI (MALME-3M melanoma): > 100 µM; GI50 (SR leukemia): 2000 nM; TGI (SR leukemia): 7.31 µM; GI50 (SN12C renal): > 100 µM; TGI (SN12C renal): > 100 µM; GI50 (PC-3 prostate): > 100 µM; TGI (PC-3 prostate): > 100 µM; GI50 (SNB-75 CNS): 25.8 µM; TGI (SNB-75 CNS): 99.7 µM; GI50 (HCT-15 colon): 54.4 µM; TGI (HCT-15 colon): > 100 µM; GI50 (U251 glioblastoma): 18 µM; TGI (U251 glioblastoma): 73.1 µM; GI50 (SK-MEL-28 melanoma): > 100 µM; TGI (SK-MEL-28 melanoma): > 100 µM; GI50 (CAKI-1 renal): > 100 µM; TGI (CAKI-1 renal): > 100 µM; GI50 (LOX IMVI melanoma): 39.4 µM; TGI (LOX IMVI melanoma): > 100 µM; GI50 (OVCAR-8 ovarian): 46.4 µM; TGI (OVCAR-8 ovarian): > 100 µM; GI50 (NCI-H460 NSCLC): 6.69 µM; TGI (NCI-H460 NSCLC): 27.3 µM; GI50 (NCI-H226 lung): 31.5 µM; TGI (NCI-H226 lung): > 100 µM; GI50 (TK-10 renal): 63.7 µM; TGI (TK-10 renal): > 100 µM; GI50 (HCC-2998 colon): > 100 µM; TGI (HCC-2998 colon): > 100 µM; GI50 ([…]-0 renal): 68.8 µM; TGI (786-0 renal): > 100 µM; GI50 (SF-268 CNS): 96.7 µM; TGI (SF-268 CNS): > 100 µM; GI50 (SF-539 CNS): > 100 µM; TGI (SF-539 CNS): > 100 µM; GI50 (A498 renal): 90.4 µM; TGI (A498 renal): > 100 µM; GI50 (SK-MEL-5 melanoma): 11.2 µM; TGI (SK-MEL-5 melanoma): 87.1 µM; GI50 (HS 578T breast): 27.8 µM; TGI (HS 578T breast): > 100 µM; GI50 (NCI-H522 lung): 15.4 µM; TGI (NCI-H522 lung): 93.1 µM; GI50 (OVCAR-5 ovarian): > 100 µM; TGI (OVCAR-5 ovarian): > 100 µM; GI50 (UACC-257 melanoma): 40.2 µM; TGI (UACC-257 melanoma): > 100 µM; GI50 (HL-60(TB) leukemia): 34.4 µM; TGI (HL-60(TB) leukemia): > 100 µM; GI50 (HCT-116 colon): 13.1 µM; TGI (HCT-116 colon): > 100 µM; GI50 (BT-549 breast): 48.6 µM; TGI (BT-549 breast): > 100 µM; GI50 (HOP-62 NSCLC): 37.2 µM; TGI (HOP-62 NSCLC): > 100 µM; GI50 (OVCAR-3 ovarian): > 100 µM; TGI (OVCAR-3 ovarian): > 100 µM; GI50 (SNB-19 CNS): > 100 µM; TGI (SNB-19 CNS): > 100 µM; GI50 (RXF 393 renal): 5.29 µM; TGI (RXF 393 renal): 23.7 µM; GI50 (UO-31 renal): > 100 µM; TGI (UO-31 renal): > 100 µM; GI50 (DU-145 prostate): > 100 µM; TGI (DU-145 prostate): > 100 µM; GI50 (HOP-92 NSCLC): 34.8 µM; TGI (HOP-92 NSCLC): > 100 µM; GI50 (NCI-H23 lung): 13.6 µM; TGI (NCI-H23 lung): > 100000 nM; GI50 (NCI-H322M lung): 51.9 µM; TGI (NCI-H322M lung): > 100 µM; GI50 (KM12 colon): > 100 µM; TGI (KM12 colon): > 100 µM; GI50 (MDA-MB-468 breast): 3.87 µM; TGI (MDA-MB-468 breast): 59.4 µM; GI50 (SK-OV-3 ovarian): > 100 µM; TGI (SK-OV-3 ovarian): > 100 µM; GI50 (HT29 colon): > 100 µM; TGI (HT29 colon): > 100 µM; GI50 (A549 NSCLC): > 100 µM; TGI (A549 NSCLC): > 100 µM; GI50 (SW-620 colon): > 100 µM; TGI (SW-620 colon): > 100 µM; GI50 (K-562 leukemia): 7.47 µM; TGI (K-562 leukemia): > 100 µM; GI50 (NCI/ADR-RES ovarian): 6.99 µM; TGI (NCI/ADR-RES ovarian): > 100 µM; GI50 (MDA-MB-435 melanoma): > 100 µM; TGI (MDA-MB-435 melanoma): > 100 µM; GI50 (CCRF-CEM leukemia): 13.8 µM; TGI (CCRF-CEM leukemia): > 100 µM; GI50 (OVCAR-4 ovarian): 47.7 µM; TGI (OVCAR-4 ovarian): > 100 µM; GI50 (ACHN renal): 95.2 µM; TGI (ACHN renal): > 100 µM; GI50 (EKVX NSCLC): 23.2 µM; TGI (EKVX NSCLC): > 100 µM; GI50 (RPMI-8226 leukemia): 5.58 µM; TGI (RPMI-8226 leukemia): > 100 µM; GI50 (MDA-MB-231 breast): 92.8 µM; TGI (MDA-MB-231 breast): > 100 µM; GI50 (M14 melanoma): > 100 µM; TGI (M14 melanoma): > 100 µM; GI50 (T-47D breast): 8.3 µM; TGI (T-47D breast): > 100 µM

Question: Which results are given for `Cc1c(-c2c(-c3ccc(F)o3)sc3ncnc(O[C@H](Cc4ccccc4OCc4ccnn4CC(F)(F)F)C(=O)O)c23)ccc(OCCN2CCN(C)CC2)c1Cl`?
Answer: GI50 (SF-295 CNS): 1.66 µM; TGI (SF-295 CNS): 3.06 µM; GI50 (MOLT-4 leukemia): < 0.01 µM; TGI (MOLT-4 leukemia): < 0.01 µM; GI50 (MCF7 breast): < 0.01 µM; TGI (MCF7 breast): 1180 nM; GI50 (SR leukemia): < 10 nM; TGI (SR leukemia): < 0.01 µM; GI50 (HCT-15 colon): 10.4 µM; TGI (HCT-15 colon): 22.2 µM; GI50 (UACC-62 melanoma): < 10 nM; TGI (UACC-62 melanoma): 10.2 nM; GI50 (TK-10 renal): 3.27 µM; TGI (TK-10 renal): 8.77 µM; GI50 ([…]-0 renal): 2.11 µM; TGI (786-0 renal): 4.5 µM; GI50 (A498 renal): 3.34 µM; TGI (A498 renal): 9.93 µM; GI50 (HL-60(TB) leukemia): < 0.01 µM; TGI (HL-60(TB) leukemia): < 0.01 µM; GI50 (UO-31 renal): 15.6 µM; TGI (UO-31 renal): 29.1 µM; GI50 (NCI-H23 lung): 0.0113 µM; TGI (NCI-H23 lung): 31.8 nM; GI50 (MDA-MB-468 breast): < 0.01 µM; TGI (MDA-MB-468 breast): < 0.01 µM; GI50 (NCI/ADR-RES ovarian): 27.4 µM; TGI (NCI/ADR-RES ovarian): 95.7 µM; GI50 (SK-MEL-2 melanoma): < 10 nM; TGI (SK-MEL-2 melanoma): < 10 nM; GI50 (ACHN renal): 6.94 µM; TGI (ACHN renal): 18.8 µM; GI50 (RPMI-8226 leukemia): < 0.01 µM; TGI (RPMI-8226 leukemia): < 0.01 µM
